Experimental data reported in patent US20200024278A1, “COMPOSITION COMPRISING ANTIBIOTIC COMPOUND AND AN HETEROCYCLIC COMPOUND AND THEIR USE IN PREVENTING OR TREATING BACTERIAL INFECTIONS” (MUTABILIS, priority 2016, published 2020).
Read-outs that look alike come from different tables or passages of the source.

Legend:
Test in all cases: MIC, broth microdilution (CLSI), substance alone or ATB combined with compound at 4 or 8 μg/mL
ECO 190317 = format: cell-based, E. coli; details: for MIC: Escherichia coli
How it was run: (§1)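 Per CLSI-M7-A7, MICs are determined in cation-adjusted Mueller-Hinton broth with a final inoculum of 5·10^5 CFU/mL. Plates incubate 16-20 h at 35° C in air and are read by eye. Fosfomycin assays carry 25 μg/ml glucose-6-phosphate.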

ECO UFR39 = format: cell-based, E. coli; details: for MIC: Escherichia coli
How it was run: as §1

KPN 6299 = format: cell-based, K. pneumoniae; details: for MIC: Klebsiella pneumoniae
How it was run: as §1

KPN BAA-1898 = format: cell-based, K. pneumoniae; details: for MIC: Klebsiella pneumoniae, BAA1898
How it was run: as §1

KPN UFR42 = format: cell-based, K. pneumoniae; details: for MIC: Klebsiella pneumoniae
How it was run: as §1

ECL P99 = format: cell-based, E. cloacae; details: ECL P99
How it was run: as §1

C=CC1=C(C(=O)O)N2C(=O)[C@@H](NC(=O)/C(=N\OCC(=O)O)c3csc(N)n3)[C@H]2SC1 [FIX, Cefixime, reference compound]
MIC ATB combined with Example 1 @8 μg/ml (ECO 190317; ECO 190317, with Example 1 @8 μg/ml): <0.031 mg/L | MIC ATB combined with Example 1 @8 μg/ml (ECO 190317; ECO 190317, with Example 1 at 8 μg/ml): <0.031 mg/L | MIC ATB combined with Example 7 @8 μgml (ECO 190317; ECO 190317, with Example 7 at 8 μg/ml): <0.031 mg/L | MIC ATB combined with Example 9 @4 μg/ml (ECO 190317; ECO 190317, with Example 9 @4 μg/ml): <0.031 mg/L | MIC ATB combined with Example 9 @4 μg/ml (ECO 190317; ECO 190317, with Example 9 at 4 μg/ml): <0.031 mg/L | MIC ATB combined with Example 11 @8 μg/ml (ECO 190317; ECO 190317, with Example 11 at 8 μg/ml): <0.031 mg/L | MIC ATB combined with Example 12 @8 μg/ml (ECO 190317; ECO 190317, with Example 12 at 8 μg/ml): <0.031 mg/L | MIC ATB combined with Example 13 @8 μg/ml (ECO 190317; ECO 190317, with Example 13 at 8 μg/ml): <0.031 mg/L | MIC ATB combined with Example 14 @8 μg/ml (ECO 190317; ECO 190317, with Example 14 at 8 μg/ml): <0.031 mg/L | MIC ATB combined with Example 15 @4 μgml (ECO 190317; ECO 190317, with Example 15 at 4 μg/ml): <0.031 mg/L | MIC ATB combined with Example 16 @4 μg/ml (ECO 190317; ECO 190317, with Example 16 at 4 μg/ml): <0.031 mg/L | MIC (ECO 190317): > 128 mg/L | MIC (ECO 190317; ECO 190317, antibiotic alone, read-out: MIC ATB alone): 256 mg/L | MIC ATB combined with Example 1 @8 μg/ml (ECO UFR39; ECO UFR39, with Example 1 @8 μg/ml): >32 mg/L | MIC ATB combined with Example 1 @8 μg/ml (ECO UFR39; ECO UFR39, with Example 1 at 8 μg/ml): >32 mg/L | MIC ATB combined with Example 7 @8 μgml (ECO UFR39; ECO UFR39, with Example 7 at 8 μg/ml): <0.031 mg/L | MIC ATB combined with Example 9 @4 μg/ml (ECO UFR39; ECO UFR39, with Example 9 @4 μg/ml): <0.031 mg/L | MIC ATB combined with Example 9 @4 μg/ml (ECO UFR39; ECO UFR39, with Example 9 at 4 μg/ml): <0.031 mg/L | MIC ATB combined with Example 11 @8 μg/ml (ECO UFR39; ECO UFR39, with Example 11 at 8 μg/ml): <0.031 mg/L | MIC ATB combined with Example 12 @8 μg/ml (ECO UFR39; ECO UFR39, with Example 12 at 8 μg/ml): <0.031 mg/L | MIC ATB combined with Example 13 @8 μg/ml (ECO UFR39; ECO UFR39, with Example 13 at 8 μg/ml): <0.031 mg/L | MIC ATB combined with Example 14 @8 μg/ml (ECO UFR39; ECO UFR39, with Example 14 at 8 μg/ml): <0.031 mg/L | MIC ATB combined with Example 15 @4 μgml (ECO UFR39; ECO UFR39, with Example 15 at 4 μg/ml): <0.031 mg/L | MIC ATB combined with Example 16 @4 μg/ml (ECO UFR39; ECO UFR39, with Example 16 at 4 μg/ml): <0.031 mg/L | MIC (ECO UFR39): > 128 mg/L | MIC (ECO UFR39; ECO UFR39, antibiotic alone, read-out: MIC ATB alone): > 512 mg/L | MIC (KPN 6299; antibiotic alone, read-out: MIC ATB alone): 16 mg/L | MIC (KPN 6299; substance alone, read-out: MIC): 16 mg/L | MIC ATB combined with Example 1 @8 μg/ml (KPN 6299; with Example 1 @8 μg/ml): 0.063 mg/L | MIC ATB combined with Example 1 @8 μg/ml (KPN 6299; with Example 1 at 8 μg/ml): 0.063 mg/L | MIC ATB combined with Example 7 @8 μgml (KPN 6299; with Example 7 at 8 μg/ml): 0.063 mg/L | MIC ATB combined with Example 9 @4 μg/ml (KPN 6299; with Example 9 @4 μg/ml): <=0.031 μg/mL | MIC ATB combined with Example 9 @4 μg/ml (KPN 6299; with Example 9 at 4 μg/ml): <=0.031 μg/mL | MIC ATB combined with Example 11 @8 μg/ml (KPN 6299; with Example 11 at 8 μg/ml): <0.031 mg/L | MIC ATB combined with Example 12 @8 μg/ml (KPN 6299; with Example 12 at 8 μg/ml): <0.031 mg/L | MIC ATB combined with Example 13 @8 μg/ml (KPN 6299; with Example 13 at 8 μg/ml): <=0.031 μg/mL | MIC ATB combined with Example 14 @8 μg/ml (KPN 6299; with Example 14 at 8 μg/ml): <0.031 mg/L | MIC ATB combined with Example 15 @4 μgml (KPN 6299; with Example 15 at 4 μg/ml): <0.031 mg/L | MIC ATB combined with Example 16 @4 μg/ml (KPN 6299; with Example 16 at 4 μg/ml): <0.031 mg/L | MIC ATB combined with Example 1 @8 μg/ml (KPN BAA-1898; KPN BAA-1898, with Example 1 @8 μg/ml): 0.25 mg/L | MIC ATB combined with Example 1 @8 μg/ml (KPN BAA-1898; KPN BAA-1898, with Example 1 at 8 μg/ml): 0.25 mg/L | MIC ATB combined with Example 7 @8 μgml (KPN BAA-1898; KPN BAA-1898, with Example 7 at 8 μg/ml): 0.25 mg/L | MIC ATB combined with Example 9 @4 μg/ml (KPN BAA-1898; KPN BAA-1898, with Example 9 @4 μg/ml): <0.031 mg/L | MIC ATB combined with Example 9 @4 μg/ml (KPN BAA-1898; KPN BAA-1898, with Example 9 at 4 μg/ml): <0.031 mg/L | MIC ATB combined with Example 11 @8 μg/ml (KPN BAA-1898; KPN BAA-1898, with Example 11 at 8 μg/ml): <0.031 mg/L | MIC ATB combined with Example 12 @8 μg/ml (KPN BAA-1898; KPN BAA-1898, with Example 12 at 8 μg/ml): <0.031 mg/L | MIC ATB combined with Example 13 @8 μg/ml (KPN BAA-1898; KPN BAA-1898, with Example 13 at 8 μg/ml): 0.5 mg/L | MIC ATB combined with Example 14 @8 μg/ml (KPN BAA-1898; KPN BAA-1898, with Example 14 at 8 μg/ml): <0.031 mg/L | MIC ATB combined with Example 15 @4 μgml (KPN BAA-1898; KPN BAA-1898, with Example 15 at 4 μg/ml): <0.031 mg/L | MIC ATB combined with Example 16 @4 μg/ml (KPN BAA-1898; KPN BAA-1898, with Example 16 at 4 μg/ml): <0.031 mg/L | MIC (KPN BAA-1898): > 128 mg/L | MIC (KPN BAA-1898; KPN BAA-1898, antibiotic alone, read-out: MIC ATB alone): > 512 mg/L | MIC ATB combined with Example 1 @8 μg/ml (KPN UFR42; KPN UFR42, with Example 1 @8 μg/ml): >32 mg/L | MIC ATB combined with Example 1 @8 μg/ml (KPN UFR42; KPN UFR42, with Example 1 at 8 μg/ml): >32 mg/L | MIC ATB combined with Example 7 @8 μgml (KPN UFR42; KPN UFR42, with Example 7 at 8 μg/ml): >32 mg/L | MIC ATB combined with Example 9 @4 μg/ml (KPN UFR42; KPN UFR42, with Example 9 @4 μg/ml): >32 mg/L | MIC ATB combined with Example 9 @4 μg/ml (KPN UFR42; KPN UFR42, with Example 9 at 4 μg/ml): >32 mg/L | MIC ATB combined with Example 11 @8 μg/ml (KPN UFR42; KPN UFR42, with Example 11 at 8 μg/ml): <0.031 mg/L | MIC ATB combined with Example 12 @8 μg/ml (KPN UFR42; KPN UFR42, with Example 12 at 8 μg/ml): <0.031 mg/L | MIC ATB combined with Example 13 @8 μg/ml (KPN UFR42; KPN UFR42, with Example 13 at 8 μg/ml): >32 mg/L | MIC ATB combined with Example 14 @8 μg/ml (KPN UFR42; KPN UFR42, with Example 14 at 8 μg/ml): <0.031 mg/L | MIC ATB combined with Example 15 @4 μgml (KPN UFR42; KPN UFR42, with Example 15 at 4 μg/ml): <0.031 mg/L | MIC ATB combined with Example 16 @4 μg/ml (KPN UFR42; KPN UFR42, with Example 16 at 4 μg/ml): <0.031 mg/L | MIC (KPN UFR42): > 128 mg/L | MIC (KPN UFR42; KPN UFR42, antibiotic alone, read-out: MIC ATB alone): > 256 mg/L | MIC ATB combined with Example 1 @8 μg/ml (ECL P99; with Example 1 @8 μg/ml): 0.063 mg/L | MIC ATB combined with Example 1 @8 μg/ml (ECL P99; with Example 1 at 8 μg/ml): 0.063 mg/L | MIC ATB combined with Example 7 @8 μgml (ECL P99; with Example 7 at 8 μg/ml): 16 mg/L | MIC ATB combined with Example 9 @4 μg/ml (ECL P99; with Example 9 @4 μg/ml): <0.031 mg/L
